“Also recorded” adds a separate entry of the source. Read-outs that look alike come from different tables or passages of the source.
Legend:
DHFR in MDA-MB-468 cells = test system: T1, DHFR in MDA-MB-468 cells; test: DHFR accumulation assay (Western blot); assay type: cell-based, Human; conditions: for Fold increase in DHFR levels: 24 h
T1 construct: reactions containing 55 μg MDA-MB-468 lysate; endogenous in cells; host or cells: MDA-MB-468
Experimental: Trypsinized MDA-MB-468 cells were seeded into 6-well plates at a density of 300,000 cells per 2 mL of media and allowed to adhere for 24 h. […] The final concentration of DMSO in each well was 1%. A DMSO-only control was also performed on each individual plate. Cells were then trypsinized, harvested by centrifugation at 200× g for 5 min at 4 °C, and washed once with PBS/PIC. Cell pellets were flash frozen using an ethanol/dry ice bath and stored at −80 °C prior to lysis. Each cell pellet was lysed as described above using 50 μL PBS/PIC per cell pellet. Samples were then analyzed by Western blot, as described below, using 30 μg lysate per lane. Band intensities of DHFR were normalized to the loading control SOD1 via densitometry using ImageJ (Fiji), and each DHFR band was normalized to the DMSO control. Fold-change in DHFR band intensity was plotted against inhibitor concentration (μM). Each experiment was performed two separate times as individual biological replicates (n = 2).
Proteins were electrophoretically separated on a 10% gel, and proteins were transferred to a methanol-activated PVDF membrane using the Trans-Blot Turbo transfer system (Bio-Rad) for 7 min at 1.3 A and 25 V in Trans-Blot Turbo transfer buffer (Bio-Rad). Membranes were blocked with 5% skim milk w/v in TBS-T (20 mM Tris, 150 mM NaCl, 0.05% Tween-20) for 1 h at room temperature. […] The horseradish peroxidase (HRP)-linked anti-mouse IgG secondary antibody (NA931, Cytiva; 1:3000) was added for 1 h at room temperature in 5% skim milk w/v in TBS-T. Signal was detected by adding Immobilon Forte Western HRP Substrate (Millipore), and chemiluminescence was captured on a Sapphire Biomolecular Imager (Azure Biosystems). Band densities were determined using ImageJ (Fiji). The band intensity of DHFR was normalized to the thermostable loading control SOD1 [22].

[1] = test system: STAT3 transcriptional activity in U3A STAT3 luciferase reporter cell line; test: STAT3 luciferase reporter assay; assay type: cell-based; conditions: for Inhibition of STAT3-dependent luciferase activity: 0.02–20 μM, OSM 10 ng/mL
Experimental: The STAT3-dependent luciferase reporter assay was performed as previously reported. One day prior to the assay, the U3A STAT3 luciferase reporter cell line was seeded in a 96-well plate at 8000 cells per well. Cells were then incubated with compounds at the indicated concentration, and each well was treated with either media control or stimulated with 10 ng/mL oncostatin M (OSM) and incubated for six hours at 37 °C. Luciferase activity was quantified using the Bright-Glo Luciferase Assay system (Promega) and a Luminoskan Ascent Luminometer (Labsystems). Collected luminescence readings were normalized to DMSO-treated controls. Stimulation with (+OSM) gave luminescence values around 2.5 times that of the unstimulated control (−OSM). Quadruplicates were averaged and plotted with error bars representing standard deviation. Each condition was performed in quadruplicate on two separate occasions (n = 2) with representative data shown. Statistical significance was determined using Ordinary one-way ANOVA with a Dunnett multiple comparison test.

purified human DHFR = target: T2, purified human DHFR (Homo sapiens, UniProt P00374); test: DHFR enzymatic inhibition assay (NADPH absorbance at 340 nm); assay type: biochemical; conditions: 137.5 μM DHF, 125 μM NADPH, n = 2
T2 construct: made in house; host or cells: E. coli BL21 (DE3) T1R pRARE2, pNIC-Bsa4 plasmid
T2 sequence (P00374 1-187): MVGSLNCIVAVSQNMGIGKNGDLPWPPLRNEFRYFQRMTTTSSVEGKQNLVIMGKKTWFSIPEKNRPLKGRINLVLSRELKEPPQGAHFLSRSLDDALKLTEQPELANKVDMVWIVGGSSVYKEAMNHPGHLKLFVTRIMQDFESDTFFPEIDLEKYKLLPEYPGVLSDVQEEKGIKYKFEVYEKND
Experimental: Working stocks of each inhibitor were created so that the final concentration of DMSO in each reaction was 2% in a final reaction volume of 100 μL. […] Reactions were prepared on ice in 384-well plates. […] Consumption of NADPH by measuring absorbance at 340 nm was used to monitor the progress of the reaction. Readings were taken every 5 min for 1 h at 37 °C using a Synergy MX microplate reader (BioTek).
Percent inhibition relative to the no-inhibitor control was determined using Equation (1). (1) % Inhibition=A340Inhibitor−A340DMSO Control/A340No DHFR−A340DMSO Control×100
Percent inhibition data were then fit to the four-parameter logistic model (Equation (2)) in GraphPad Prism 9.4.1 to determine half-maximal inhibitory concentrations (IC50):(2) y=Bottom+Top−Bottom/1+IC50/x^Hill slope where y represents the percent inhibition, x represents the concentration of inhibitor (μM), the bottom and top represent the bottom and top plateaus, and the Hill slope represents the slope factor. Each experiment contained duplicates of each sample, and each experiment was performed 2 times (n = 2). An ordinary one-way ANOVA was used to test for statistical significance between treatments.

MCF-7 cells = test: Resazurin viability assay with or without folinic acid, MCF-7; assay type: cell-based, Human; conditions: 72 h
Experimental: (§1) The incorporation and metabolism of resazurin to resorufin was used to monitor cell viability. MDA-MB-468, MCF7, and MDA-MB-231 cells were grown in 96-well plates with a total of 5000 cells per well in a total volume of 180 μL for 24 h, as described above. After 24 h of growth, cells were treated with increasing concentrations of compounds (0.0457–100 μM) for 72 h. A vehicle control was also performed. […] The volume of treatment added to each well was 20 μL. For folinic acid rescue experiments, 5000 cells were treated with 10 μM compound with or without 300 μg/mL folinic acid (Supelco). After 72 h of treatment, resazurin was added to a final concentration of 44 μM, and cells were incubated for an additional 4 h at 37 °C. The fluorescence of resorufin was monitored on a Synergy MX microplate reader (BioTek) using an excitation wavelength of 540 nm and an emission wavelength of 600 nm. Percent viability relative to the DMSO control was determined. Each treatment was performed in triplicate, and each individual experiment was repeated three times (n = 3).

MDA-MB-231 cells = test: Resazurin viability assay with or without folinic acid, MDA-MB-231; assay type: cell-based, Human; conditions: 72 h
Experimental: as §1

MDA-MB-468 cells = test: Resazurin viability assay with or without folinic acid, MDA-MB-468; assay type: cell-based, Human; conditions: 72 h; for Rescue of viability impairment by folinic acid: MDA-MB-468, 10 μM ± 300 μg/mL FA
Experimental: as §1

leukemia = test system: leukemia; set-up: method as in PMID 5479856, PMID 5479852, PMID 5241406; conditions: early studies in the 1970s; cited from earlier work

Compound	DHFR accumulation (DHFR in MDA-MB-468 cells; MDA-MB-468, 24 h)	STAT3-dependent luciferase activity ([1]; 20 nM, U3A)	Inhibition of STAT3-dependent luciferase activity [1]	IC50 (purified human DHFR; 200 nM DHFR, read-out: IC50)	IC50 (purified human DHFR; IC50, 200 nM DHFR)	Relative Viability (%) – Inhibitor + FA Treatment (MCF-7 cells; MCF-7, 10 μM + 300 μg/mL folinic acid)	Relative Viability (%) – Inhibitor Alone (MCF-7 cells; MCF-7, 10 μM, relative to DMSO)	Relative Viability (%) – Inhibitor + FA Treatment (MDA-MB-231 cells; MDA-MB-231, 10 μM + 300 μg/mL folinic acid)	Rescue of viability impairment by folinic acid (MDA-MB-231 cells; MDA-MB-231, 10 μM ± 300 μg/mL FA)	Relative Viability (%) – Inhibitor Alone (MDA-MB-231 cells; MDA-MB-231, 10 μM, relative to DMSO)	Relative Viability (%) – Inhibitor + FA Treatment (MDA-MB-468 cells; MDA-MB-468, 10 μM + 300 μg/mL folinic acid)	Rescue of viability impairment by folinic acid (MDA-MB-468 cells)	Relative Viability (%) – Inhibitor Alone (MDA-MB-468 cells; MDA-MB-468, 10 μM, relative to DMSO)	Fold increase in DHFR levels (DHFR in MDA-MB-468 cells; MDA-MB-468, 10 nM)	Fold increase in DHFR levels (DHFR in MDA-MB-468 cells; MDA-MB-468, 1 µM)	Concentration giving notable accumulation of DHFR (DHFR in MDA-MB-468 cells; MDA-MB-468, 24 h, range 0.012–1 nM)	Anti-leukemic activity in vivo (leukemia)
CC1(C)N=C(N)N=C(N)N1c1ccc(Cl)cc1 [Cyc, Cycloguanil]	required higher concentrations to induce DHFR accumulation; also recorded: failed to induce DHFR accumulation at low nM concentrations	significantly inhibited	potent inhibition of luciferase activity														
CC1(C)N=C(N)N=C(N)N1c1ccc(CCCCc2ccc(S(=O)(=O)F)cc2)c(Cl)c1 [compound 127159]			do not reach full STAT3 inhibition until µM concentrations	750 ± 320 nM	< 1000 nM	99.99 ± 3.2%	67.68 ± 13.3%	106.42 ± 15.0%	largest amplitude of rescue	50.08 ± 8.8%	77.23 ± 7.2%	rescued in all but MDA-MB-468 cells	70.45 ± 7.8%	10 fold	30 fold	0.33 nM	promising anti-leukemic activity in vivo
CCc1nc(N)nc(N)c1-c1ccc(Cl)cc1 [Pyr, Pyrimethamine]	required higher concentrations to induce DHFR accumulation		do not reach full STAT3 inhibition until µM concentrations									statistically significant rescue					

Source: article PMC9961069 (Metabolites, 2023)
